Assay results from the supplement of paper PMC10477900.
Counter-ions that a name gives are not always drawn.

Experiments:
HCT116 [1] = conditions: 72 h
Protocol: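 HCT116 control and MTA1-KO (CRISPR) HCT116 cells were seeded in 384-well plates (800 cells/well), treated 16 h later with 237 metabolism-related anticancer drugs at five doses (10 uM, 2 uM, 400 nM, 80 nM, 16 nM) for 72 h, two replicates; viability by CCK8. Values are % inhibition of viability relative to untreated cells, plus fitted IC50.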

HCT116 [2] = assay: viability inhibition vs untreated; higher = more cytotoxic; conditions: 72 h

SMILES | IC50 (HCT116 [1]; genotype: MTA1-KO) [µM] | IC50 (HCT116 [1]; genotype: control) [µM] | viability inhibition (HCT116 [2]; genotype: MTA1-KO, 16 nM) [%] | viability inhibition (HCT116 [2]; genotype: MTA1-KO, 80 nM) [%] | viability inhibition (HCT116 [2]; genotype: MTA1-KO, 400 nM) [%] | viability inhibition (HCT116 [2]; genotype: MTA1-KO, 2000 nM) [%] | viability inhibition (HCT116 [2]; genotype: MTA1-KO, 10000 nM) [%] | viability inhibition (HCT116 [2]; genotype: control, 16 nM) [%] | viability inhibition (HCT116 [2]; genotype: control, 80 nM) [%] | viability inhibition (HCT116 [2]; genotype: control, 400 nM) [%] | viability inhibition (HCT116 [2]; genotype: control, 2000 nM) [%] | viability inhibition (HCT116 [2]; genotype: control, 10000 nM) [%]
O=C(O)CCC(=O)c1ccc(-c2ccccc2)cc1 [Fenbufen] | > 10 | > 10 | -12.7 | -18.9 | -14.3 | 3.54 | -0.929 | 3.15 | 8.7 | 7.49 | 6.47 | 10.4
CC1=C(/C=C/C(C)=C/C=C/C(C)=C/C(=O)Nc2ccc(O)cc2)C(C)(C)CCC1 [Fenretinide] | > 10 | > 10 | -13 | -18.5 | -15 | -14.4 | -2.3 | 23.7 | 2.62 | 1.09 | 9.79 | 15.3
O=c1[nH]cc(F)c(=O)[nH]1 [Fluorouracil] | 6.47 | 3.81 | -23.1 | -26 | -27.2 | 1.88 | 53.9 | -8.89 | -1.82 | 8.13 | 22.2 | 83.9
COc1ccc([C@@H]2OC[C@H]3[C@@H]2CO[C@@H]3c2ccc(O[C@@H]3O[C@H](CO)[C@@H](O)[C@H](O)[C@H]3O)c(OC)c2)cc1OC [Forsythin] | > 10 | > 10 | 5.1 | -3.89 | -0.379 | 2.87 | 27.7 | 8.22 | 24 | 15.4 | -3.75 | 24.5
NC(=O)N/N=C/c1ccc([N+](=O)[O-])o1 [Furacilin] | > 10 | > 10 | -10.7 | -2.24 | -4.15 | 1.42 | 5.25 | 6.06 | 11.2 | 22.1 | 21.4 | -6.53
CC1(C)OCCn2c1nc1c(N3CCOCC3)nc(-c3cnc(N)nc3)nc12 [GDC0084] | 0.327 | 0.356 | -2.94 | 9.67 | 48 | 77.1 | 83.3 | 7.86 | 5.85 | 42.9 | 78.2 | 76.1
CN(C)C1CCN(C(=O)c2ccc(NC(=O)Nc3ccc(-c4nc(N5CCOCC5)nc(N5CCOCC5)n4)cc3)cc2)CC1 [Gedatolisib] | 0.187 | 0.305 | -5.92 | 17.3 | 63.7 | 80.1 | 82.8 | 19.9 | 26.7 | 68.6 | 88.3 | 103
O=c1cc(O)c(Cl)c[nH]1 [Gimeracil] | > 10 | > 10 | -16.5 | -10.4 | -7.69 | -8.52 | 5.58 | -1.24 | -1.82 | -11.8 | -5.96 | -7.24
N[C@@H](CCC(=O)N[C@@H](CS)C(=O)NCC(=O)O)C(=O)O [Glutathione] | > 10 | > 10 | -21.2 | -27.6 | -21.1 | -16.6 | -21.7 | 8.47 | 0.941 | -7.27 | 8.72 | 5.08
Cc1nc(Nc2cnn(C3CCNCC3)c2)nc2c1N(C)C(=O)c1cc3ccccc3cc1N2C [HTH-01-015] | 7.99 | > 10 | -1.49 | 5.48 | -1.32 | 5.37 | 62.5 | 2.33 | 10.7 | 23.3 | 17.9 | 40.7
O=C(C[C@H]1NCCC[C@@H]1O)Cn1cnc2cc(Br)c(Cl)cc2c1=O [Halofuginone hydrobromide] | 0.374 | 0.371 | 2.99 | -4.56 | 73.6 | 106 | 103 | -19.5 | -8.31 | 72.1 | 111 | 101
NS(=O)(=O)c1cc2c(cc1Cl)NCNS2(=O)=O [Hydrochlorothiazide] | > 10 | > 10 | -4.21 | -3.92 | -3.75 | -5.89 | -2.82 | 18.6 | 15.8 | 14.2 | -4.67 | 13.5
CCCC(=O)O[C@]1(C(=O)CO)CC[C@H]2[C@@H]3CCC4=CC(=O)CC[C@]4(C)[C@H]3[C@@H](O)C[C@@]21C [Hydrocortisone butyrate] | > 10 | > 10 | -3.78 | -0.209 | -6.9 | -15.3 | 17.3 | -10.8 | -15 | -3.07 | -16.7 | 41.3
CC(C)n1nc(-c2ccc3oc(N)nc3c2)c2c(N)ncnc21 [INK 128] | 1.04 | < 0.016 | -1.98 | 6.98 | 33.7 | 44.4 | 70 | 52.9 | 40.8 | 50.1 | 52.3 | 76.6
O=C(O)CNC(=O)c1c(O)c2ccccc2n(Cc2ccccc2)c1=O [IOX 2] | > 10 | > 10 | 15.5 | -17.5 | -20.5 | -22 | 9.66 | -6.02 | 3.87 | -7.43 | -4.74 | -0.498
NS(=O)(=O)c1ccc(S(=O)(=O)Nc2cccc3c(Cl)c[nH]c23)cc1 [Indisulam] | 0.129 | 0.445 | -0.89 | 30.5 | 59.8 | 90.3 | 96.6 | -5.81 | -7.51 | 10.8 | 90.9 | 90.2
Cn1cc(C[C@@H](N)C(=O)O)c2ccccc21 [Indoximod] | > 10 | > 10 | -22.6 | -22 | -24.2 | -19 | 3.49 | -15.9 | -19.5 | -14.6 | -4.79 | 3.27
NNC(=O)c1ccncc1 [Isoniazid] | > 10 | > 10 | -5.84 | -18.3 | -14.4 | -18.3 | -0.042 | -10.3 | -11.9 | -11.5 | 1.11 | 38
CC(C)CC(N)=O [Isovaleramide] | > 10 | > 10 | -15.6 | -17.2 | -11.3 | -17.2 | -13 | -6.22 | -6.16 | -2.21 | -1.96 | -10.4

SMILES | IC50 (HCT116 [1]; genotype: MTA1-KO) [µM] | IC50 (HCT116 [1]; genotype: control) [µM] | viability inhibition (HCT116 [2]; genotype: MTA1-KO, 16 nM) [%] | viability inhibition (HCT116 [2]; genotype: MTA1-KO, 80 nM) [%] | viability inhibition (HCT116 [2]; genotype: MTA1-KO, 400 nM) [%] | viability inhibition (HCT116 [2]; genotype: MTA1-KO, 2000 nM) [%] | viability inhibition (HCT116 [2]; genotype: MTA1-KO, 10000 nM) [%] | viability inhibition (HCT116 [2]; genotype: control, 16 nM) [%] | viability inhibition (HCT116 [2]; genotype: control, 80 nM) [%] | viability inhibition (HCT116 [2]; genotype: control, 400 nM) [%] | viability inhibition (HCT116 [2]; genotype: control, 2000 nM) [%] | viability inhibition (HCT116 [2]; genotype: control, 10000 nM) [%]
N#Cc1ccnc(N2C(=O)CC[C@H]2C(=O)N(c2cncc(F)c2)[C@H](C(=O)NC2CC(F)(F)C2)c2ccccc2Cl)c1 [Ivosidenib] | 5.82 | > 10 | 3.53 | -8.17 | -0.782 | 12.7 | 61.7 | -4.33 | -18.7 | -4.67 | -16.1 | -2.68
O=C(Oc1ccc([N+](=O)[O-])cc1)N1CCC(C(O)(c2ccc3c(c2)OCO3)c2ccc3c(c2)OCO3)CC1 [JZL184] | 5.53 | > 10 | 6.97 | 15.2 | 21.9 | 37.7 | 62.3 | 9.18 | -4.77 | -6.67 | -12.4 | 2.68
O=S(=O)(NCCSSCCNS(=O)(=O)c1cc(Cl)ccc1Cl)c1cc(Cl)ccc1Cl [KC7F2] | > 10 | > 10 | 3.77 | 14.6 | 13.5 | 9.73 | 16.2 | 25.3 | 14.3 | 11.1 | 9.06 | 24.4
Nc1ccc(/C=C/C(=O)NCc2cc3cc(-c4ccc(C(=O)N5CCC(F)(F)CC5)cc4)cc(-c4ccc(F)cc4)c3o2)cn1 [KPT9274] | > 10 | > 10 | -17.2 | -10 | -24 | -17.1 | 8.44 | 15.8 | -9.31 | 7.28 | 14.9 | 13.4
O=c1c(O)c(-c2ccc(O)cc2)oc2cc(O)cc(O)c12 [Kaempferol] | > 10 | > 10 | 9.79 | 3.08 | 3.45 | 10.9 | 39 | 7.5 | 18.7 | -0.112 | 8.84 | 23.1
N#CCCCSC(=N)N [Kevetrin hydrochloride] | 2.38 | > 10 | 12.4 | 15 | 12.2 | 33.3 | 57.5 | 16.1 | 19.7 | 23 | -4.7 | 23.9
COC(=O)[C@@H](N)CCCN=C(N)N[N+](=O)[O-] [L-NAME hydrochloride] | > 10 | > 10 | -9.14 | -19.4 | -19.9 | -26 | 24.3 | -17.9 | -12.2 | -11.4 | -20.1 | -19.3
NC(N)=NCCC[C@H](N)C(=O)O [L-arginine monohydrochloride] | > 10 | > 10 | -2.61 | -19.3 | -11.5 | -6.84 | 12.2 | -3.45 | -8.59 | 1.36 | 1.49 | 23.5
COC(=O)c1ccc(O)c(NC(=O)COc2ccc(C34CC5CC(CC(C5)C3)C4)cc2)c1 [LW6] | 9.47 | > 10 | 1.16 | 1.05 | -7.41 | 5.31 | 49.9 | -13.6 | -18.1 | -10.6 | -9.1 | -7.79
CC(=O)O[C@H]1C[C@H](O[C@H]2[C@@H](O)C[C@H](O[C@H]3[C@@H](O)C[C@H](O[C@H]4CC[C@@]5(C)[C@H](CC[C@@H]6[C@@H]5C[C@@H](O)[C@]5(C)[C@@H](C7=CC(=O)OC7)CC[C@]65O)C4)O[C@@H]3C)O[C@@H]2C)O[C@H](C)[C@H]1O[C@@H]1O[C@H](CO)[C@@H](O)[C@H](O)[C@H]1O [Lanatoside C] | 0.286 | 0.145 | 2.02 | 2.18 | 87.7 | 105 | 107 | -11.4 | 12.6 | 88 | 99.5 | 101
OCc1ccc(-c2nn(Cc3ccccc3)c3ccccc23)o1 [Lificiguat] | 2.7 | 2.38 | -2.39 | 4.47 | 8.63 | 37.6 | 92.2 | 0.501 | 5.33 | -0.629 | 22.8 | 100
C[C@@H](C(=O)Nc1ccc(Cl)cc1)[C@H]1CC[C@@H](c2ccnc3ccc(F)cc32)CC1 [Linrodostat] | > 10 | > 10 | 1.54 | 1.21 | 3.39 | 14.8 | 44.2 | 10.9 | 21.6 | 17.7 | 28.7 | 22
O=C(O)c1nn(Cc2ccc(Cl)cc2Cl)c2ccccc12 [Lonidamine] | > 10 | > 10 | -2.77 | -15.4 | -12.8 | -13.1 | 17.1 | 4.32 | -14 | -10.1 | 0.337 | 23.5
CC[C@H](C)C(=O)O[C@H]1C[C@@H](C)C=C2C=C[C@H](C)[C@H](CC[C@@H]3C[C@@H](O)CC(=O)O3)[C@H]21 [Lovastatin] | > 10 | > 10 | -10.2 | -12.6 | -7.31 | -11.7 | -8.01 | 2.13 | -3.28 | 8.89 | 5.64 | 29.4
O=c1cc(-c2ccc(O)c(O)c2)oc2cc(O)cc(O)c12 [Luteolin] | > 10 | > 10 | -5.43 | -9.09 | -11.5 | -2.12 | 7.81 | 2.79 | 2.36 | 3.47 | 12.7 | 12.7
O=[N+]([O-])c1ccc(Nc2nc(N3CCOCC3)nc(N3CCOCC3)n2)cc1 [MHY1485] | > 10 | 4.59 | 7.65 | 14.4 | 13.3 | 8.16 | 45.5 | -9.75 | 7.66 | 14.9 | 23.1 | 74.8
Cc1ccc(Oc2nc3cc(-c4ccc(-c5ccccc5)cc4)c(Cl)cc3[nH]2)cc1C(=O)O [MK3903] | 5.67 | 7.34 | -12.7 | -22.9 | -10.6 | 0.304 | 68 | 11.1 | 8.79 | 24.8 | 19.4 | 59.8
Cc1ccccc1C(=O)N1CCc2cc(-c3nc(NC(=O)Cc4ccc5c(c4)OCO5)sc3C)ccc21 [ML385] | > 10 | > 10 | 4.66 | -3.65 | -2.81 | 0.224 | 49.3 | 3.74 | -1.5 | 2.66 | -0.526 | 29.4
